Calls of active or inactive are those of the source. The rule behind the calls is not given here.
These molecules were tested against Sphingosine 1-phosphate receptor 1 (Homo sapiens) (UniProt P21453) (assay: human S1P1 agonists, dose response, counter-screen for S1PR3 antagonist project, cell-based, fluorescence, late-stage (AID 743426)). Details: S1P1-expressing cells, agonist counterscreen.
Sphingosine 1-phosphate receptor 1 (Homo sapiens), sequence (P21453 whole entry, looked up): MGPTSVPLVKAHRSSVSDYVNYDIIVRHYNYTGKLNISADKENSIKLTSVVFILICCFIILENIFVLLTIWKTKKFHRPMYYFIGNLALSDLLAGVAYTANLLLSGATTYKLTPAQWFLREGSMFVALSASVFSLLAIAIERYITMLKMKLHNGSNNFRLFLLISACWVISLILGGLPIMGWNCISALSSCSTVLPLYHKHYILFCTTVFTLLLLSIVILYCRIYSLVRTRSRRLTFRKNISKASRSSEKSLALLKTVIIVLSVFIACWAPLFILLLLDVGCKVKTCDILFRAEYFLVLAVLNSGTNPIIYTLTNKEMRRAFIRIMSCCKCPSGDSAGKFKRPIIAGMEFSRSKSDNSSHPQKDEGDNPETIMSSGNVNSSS
For `O=C(c1cccc(Cl)c1)N(CCO)C(c1ccc(Cl)c(Cl)c1)c1nc(-c2ccccc2)no1` (configuration not stated), the EC50 was “inactive”. With `O=C(NC(c1ccc(Cl)c(Cl)c1)c1nc(-c2ccccc2)no1)c1ccc(Cl)c(Cl)c1` (configuration not stated) the EC50 was > 50 µM (inactive). `O=C(NC(c1ccc(Cl)c(Cl)c1)c1nc(-c2ccccc2)no1)c1ccc(Cl)cc1` (configuration not stated) was tested, and the EC50 was > 50 µM (inactive). In the case of `O=C(NC(c1ccc(Cl)cc1)c1nc(-c2ccccc2)no1)c1cccc(Br)c1` (configuration not stated), the EC50 is reported as > 50 µM (inactive). With `O=C(NC(c1ccc(Cl)cc1)c1nc(-c2ccccc2)no1)c1ccc(Cl)c(Cl)c1` (configuration not stated) the EC50 was > 50 µM (inactive). `O=C(NC(c1ccccc1)c1nc(-c2ccccc2)no1)c1cccc(Br)c1` (configuration not stated) was tested, and the EC50 was “inactive”. `O=C(NC(c1ccc(Cl)c(Cl)c1)c1nc(-c2ccccc2)no1)c1ccccc1` (configuration not stated) was tested, and the EC50 was > 50 µM (inactive). In the case of `Cc1ccc(C(=O)NC(c2ccccc2)c2nc(-c3ccccc3)no2)cc1` (configuration not stated), the EC50 is reported as > 50 µM (inactive). With `O=C(NC(c1ccccc1)c1nc(-c2ccccc2)no1)c1cccc(Cl)n1` (configuration not stated) the EC50 was “inactive”. In the case of `O=C(NC(c1cccc(Cl)c1)c1nc(-c2ccccc2)no1)c1cc(Cl)cc(Cl)c1` (configuration not stated), the EC50 is reported as > 50 µM (inactive). `O=C(NC(c1nc(-c2ccccc2)no1)C1CCOCC1)c1ccc(Cl)c(Cl)c1` (configuration not stated) was tested, and the EC50 was > 50 µM (inactive). `O=C(NC(c1ccc(Cl)cc1)c1nc(-c2ccccc2)no1)c1cccc(Cl)c1` (configuration not stated) was tested, and the EC50 was > 50 µM (inactive). For `CCc1ccc(C(NC(=O)c2cccc(Cl)c2)c2nc(-c3ccccc3)no2)cc1` (configuration not stated), the EC50 was > 50 µM (inactive). With `O=C(NC(c1ccccc1)c1nc(-c2ccccc2)no1)c1cccc(Cl)c1` (configuration not stated) the EC50 was > 50 µM (inactive). In the case of `O=C(NC(c1ccc(Cl)cc1)c1nc(-c2ccccn2)no1)c1cccc(Cl)c1` (configuration not stated), the EC50 is reported as > 50 µM (inactive). For `O=C(NC(c1ccccc1)c1nc(-c2ccccc2)no1)c1ccc(Cl)cc1` (configuration not stated), the EC50 was > 50 µM (inactive). In the case of `O=C(NC(c1ccc(Br)cc1)c1nc(-c2ccccc2)no1)c1ccc(Cl)c(Cl)c1` (configuration not stated), the EC50 is reported as > 50 µM (inactive). In the case of `O=C(NC(c1ccc(Cl)c(Cl)c1)c1nc(-c2ccccc2)no1)c1cccc(Cl)c1` (configuration not stated), the EC50 is reported as > 50 µM (inactive). With `O=C(NC(c1cccc(Cl)c1)c1nc(-c2ccccc2)no1)c1ccc(Cl)c(Cl)c1` (configuration not stated) the EC50 was > 50 µM (inactive). With `O=C(NC(c1ccc(Cl)cc1)c1nc(-c2cccc(Cl)c2)no1)c1cccc(Cl)c1` (configuration not stated) the EC50 was > 50 µM (inactive). With `O=C(NC(c1cccc(Cl)c1)c1nc(-c2ccccc2)no1)c1cccc(Cl)c1` (configuration not stated) the EC50 was > 50 µM (inactive). In the case of `O=C(NC(c1nc(-c2ccccc2)no1)C1CCCCC1)c1ccc(Cl)c(Cl)c1` (configuration not stated), the EC50 is reported as > 50 µM (inactive). In the case of `O=C(NC(Cc1ccccc1)c1nc(-c2ccccc2)no1)c1cccc(Cl)c1` (configuration not stated), the EC50 is reported as “inactive”. In the case of `N#Cc1ccc(C(=O)NC(c2ccc(Cl)c(Cl)c2)c2nc(-c3ccccc3)no2)cc1` (configuration not stated), the EC50 is reported as > 50 µM (inactive). With `O=C(NC(c1ccc(Cl)cc1)c1nc(-c2ccccc2)no1)c1ccc(Cl)c(Br)c1` (configuration not stated) the EC50 was > 50 µM (inactive). With `COc1ccc(C(=O)NC(c2ccccc2)c2nc(-c3ccccc3)no2)cc1` (configuration not stated) the EC50 was > 50 µM (inactive). With `Cc1ccc(C(NC(=O)c2cccc(Cl)c2)c2nc(-c3ccccc3)no2)cc1` (configuration not stated) the EC50 was > 50 µM (inactive).

From PubChem BioAssay AID743426 (The Scripps Research Institute Molecular Screening Center, 2014)
